# Patent publication EP4682141A1, “TRICYCLIC COMPOUND” (ONO Pharmaceutical Co., Ltd., priority 2023, dated 2024)
# Columns and labels:
# diabetes model rat = test: inhibitory effect on the amount of albumin excreted in urine in diabetes model rat; format: in vivo, SDT Fatty rats; settings: urine collected for 24 hours, urine albumin/urine creatinine ratio
# Description: Male SDT Fatty rats aged 6 weeks (CLEA Japan) were purchased and preliminarily bred for 1 week or more. Experiments were performed at 8 to 16 weeks of age. The animals were fed ad libitum with solid feed CRF-1 (Oriental Yeast) and watered ad libitum.
# Animals were housed in metabolic cages 2 days before test substance administration, and urine was collected for 24 hours. On the day before administration of the test substance, urine albumin and urine creatinine were measured, and grouping was performed by a stratification randomization method based on the urine albumin/urine creatinine ratio (ACR) and the average value of body weights for each group.
# The compounds (test substances) of Examples 9-5, 10, 11, 12, 25-7 and 32, and water for injection (Otsuka Pharmaceutical) as a vehicle were orally administered once at 5 mL/kg. The administration dose is described in Table 3.
# For evaluation of the amount of albumin excreted in urine of each animal, a urine albumin/urine creatinine ratio (ACR) was measured. After administration of the test substance, the animals were housed in metabolic cages, and urine was collected for 24 hours. Each concentration of urine albumin and urine creatinine was measured using an automatic analyzer 7180 (Hitachi High-Tech), and ACR was calculated by dividing the urine albumin concentration by the urine creatinine concentration.
# [1] = test system: rat 5/6 kidney-removed model; test: in vivo drug efficacy on renal damage in rat 5/6 kidney-removed model; design: species or system Jcl: Wistar (Wistar) rats; settings: after 8 weeks from the start of administration
# Excerpt: The obtained urine sample was centrifuged, and the supernatant was subjected to measurement.
# [2] = test system: diabetic renal disease model rat; test: in vivo drug efficacy in diabetic renal disease model rat (single kidney removal, saline); design: species or system SDT.Cg-Leprfa/JttJcl (SDT-fatty rat); settings: 8 weeks after the start of administration
# Description: A diabetic renal disease model was created by extracting the unilateral kidneys of male SDT.Cg-Leprfa/JttJcl (SDT-fatty/Jcl, CLEA Japan) rats, a type 2 diabetes model, and then giving saline. The in vivo drug efficacy of the present compound on diabetic renal disease was evaluated in this model.
# Male SDT.Cg-Leprfa/JttJcl (SDT-fatty rat) aged 4 weeks was purchased from CLEA Japan, and subjected to experiments. The animals were fed ad libitum with Purina5008 (Japan SLC) from the time of arrival, and watered ad libitum. Water was given from the arrival and until 1 week from single kidney removal, and a 0.2 w/v% NaCl solution was given 1 week after single kidney removal.
# After acclimation breeding, the body weight was measured, and buprenorphine was subcutaneously administered at a dose of 0.01 mg/kg under inhalation anesthesia with isoflurane (Mayran). After removing hair from the right abdomen of the rat, the right abdomen was disinfected with ethanol and isodine for disinfection and incised to expose the right kidney. The renal artery and vein was ligated with a suture to stop the blood flow, the right kidney was totally removed, and the incision was sutured. The following day, analgesic buprenorphine was administered subcutaneously at a dose of 0.01 mg/kg.
# Grouping was performed 3 weeks after single kidney removal. The mice were divided into groups so that the average of the above parameters was almost equal between the groups on the basis of body weight, serum urea nitrogen (BUN), serum creatinine (S-CRE), serum total cholesterol (T-CHO), blood glucose level (GLU), neutral fat (TG), urinary protein (U-TP), urinary albumin (U-ALB), and creatinine clearance (CCr).
# All of the compounds of Examples 25-7, 10, 11 and 12 were orally administered once a day for 8 weeks in combination with losartan (30 mg/kg), a renin angiotensin system inhibitor, and canagliflozin (10 mg/kg), a glucose co-transporter inhibitor. The compounds of Examples 25-7, 10, 11 and 12, and losartan were each dissolved in water for injection (Otsuka Pharmaceutical), and canagliflozin was suspended in a 0.5% methyl cellulose solution (Fujifilm Wako Pure Chemical Corporation) to prepare an administration solution. In the Control-1 group, water for injection which is a vehicle of losartan or the compound of Examples 25-7, 10, 11 or 12 was orally administered at 5 mL/kg, and a 0.5% methylcellulose solution which is a vehicle of canagliflozin was orally administered at 2.5 mL/kg once a day for 8 weeks. In the Control-2 group, losartan (30 mg/kg) dissolved in water for injection was orally administered at an administration volume of 2.5 mL/kg, canagliflozin (10 mg/kg) suspended in a 0.5% methyl cellulose solution was orally administered at an administration volume of 2.5 mL/kg, and water for injection which is a vehicle of the compounds of Examples 25-7, 10, 11 and 12 was orally administered at an administration volume of 2.5 mL/kg once a day for 8 weeks. The administration dose is described in Table 8.
# Blood was collected by puncturing the tail vein of the rat with an injection needle. Blood was collected in a tube for serum separation (BD Microtainer) and centrifuged to obtain serum. Urine was collected for 24 hours in a metabolic cage for rat under conditions in which a solid feed and water can be freely taken. The obtained urine sample was centrifuged, and the supernatant was subjected to measurement. The concentrations of BUN, S-CRE, T-CHO, TG, U-ALB, U-TP, GLU and U-CRE were measured by an automatic analyzer Hitachi 7180 (Hitachi High-Tech).
# EP1 = target: T1, EP1 (Homo sapiens, UniProt P34995); test: agonist activity on human EP1 receptor (intracellular calcium concentration, EP1-CHO cells); format: cell-based
# T1 construct: expressed in transfected cells; host or cells: CHO (EP1-CHO)
# T1 sequence (P34995 1-402): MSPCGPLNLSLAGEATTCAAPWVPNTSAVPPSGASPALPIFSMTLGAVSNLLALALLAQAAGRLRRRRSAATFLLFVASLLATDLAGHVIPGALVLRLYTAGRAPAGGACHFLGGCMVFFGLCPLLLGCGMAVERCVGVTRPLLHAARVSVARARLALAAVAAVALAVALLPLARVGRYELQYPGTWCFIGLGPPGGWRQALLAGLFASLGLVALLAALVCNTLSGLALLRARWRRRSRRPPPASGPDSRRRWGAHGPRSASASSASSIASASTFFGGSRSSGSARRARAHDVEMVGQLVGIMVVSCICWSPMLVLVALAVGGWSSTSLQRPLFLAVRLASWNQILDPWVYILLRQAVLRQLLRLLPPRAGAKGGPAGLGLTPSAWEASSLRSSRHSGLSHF
# Description: (§1) Using CHO cells (EP1-CHO, EP2-CHO, EP3-Chem1, EP4-CHO and IP-CHO) on which various human prostanoid receptors were forcibly expressed, the agonist activity of the test compound on the various prostanoid receptors was examined using the intracellular calcium concentration for EP1 and EP3, and the intracellular cyclic AMP (hereinafter, abbreviated as cAMP) production amount for EP2, EP4 and IP as indices.
# (§2) The test compound and control substances (PGE2 and iloprost) were dissolved in dimethyl sulfoxide (DMSO) to prepare a 10 mmol/L solution. The prepared 10 mmol/L solution was thawed at the time of use, serially diluted using DMSO, and diluted with a buffer solution 1 for measurement (Hank's balanced salt solution (Thermofischer scientific) containing 1 w/v% human serum albumin (Sigma), 2 µmol/L indomethacin (Sigma), 2.5 mmol/L probenecid, and 10 mmol/L HEPES-NaOH (pH7.4)) or a buffer solution 2 for measurement (D-PBS (Nacalai Tesque) containing 0.1 w/v% human serum albumin, 2 µmol/L diclofenac (Sigma), and 1 mmol/L 3-isobutyl-1-methylxanthine (Sigma)) to perform experiments.
# The intracellular calcium concentration was measured using Calcium 6 Assay Kit (Molecular Devices). On the day before the measurement, EP1-CHO and EP3-Chem 1 were obtained by thawing the frozen cells, suspended using Ham's F-12 medium (Thermofischer scientific) containing inactivated (56°C, 30 min) 9.8 vol% FBS (Thermofischer scientific) and penicillin-streptomycin (Nacalai Tesque), seeded into a 96 well UV plate to 1.0×10^5 cells per well, and static cultured at 37°C in the presence of 5%CO2. On the day of the measurement, the medium was removed, followed by addition of 120 µL of the Calcium indication solution dissolved in the buffer solution 1 for measurement and incubation at room temperature under light-shielding for about 1 hour. After 1 hour incubation, the 96 well UV plates were set in a fluorescence spectrophotometer (FDSS-7000, Hamamatsu Photonics) to measure the intracellular calcium concentration. Thirty microliters of the buffer solution 1 for measurement containing various concentrations of agonists were added, and the mixture was reacted. The intracellular calcium concentration was measured by irradiating the cells with 480 nm excitation light and measuring the fluorescence intensity at 540 nm.
# IP = target: T2, IP (Homo sapiens, UniProt P43119); test: agonist activity on human IP receptor (cAMP production, IP-CHO cells); format: cell-based
# T2 construct: expressed in transfected cells; host or cells: CHO (IP-CHO)
# Description: as §1
# (§3) The test compound and control substances (PGE2 and iloprost) were dissolved in dimethyl sulfoxide (DMSO) to prepare a 10 mmol/L solution. […]
# (§4) On the day of the measurement, EP2-CHO, EP4-CHO, and IP-CHO were obtained by thawing frozen cells. […] The cAMP concentration was measured using a cAMP HTRF HiRange kit (CIS bio International). […] After incubation for 1 hour, time-resolved fluorescence at 620 nm and 660 nm when excited at 340 nm was measured using Synergy Neo (Bioteck), and the ratio (TRF ratio) was determined to calculate the cAMP concentration from the calibration curve.
# EP3 receptor = target: T3, EP3 receptor (Homo sapiens, UniProt P43115); test: agonist activity on human EP3 receptor (intracellular calcium concentration, EP3-Chem1 cells); format: cell-based; settings: agonist activity on the EP3 receptor
# T3 construct: expressed in transfected cells; host or cells: EP3-Chem1
# T3 sequence (P43115 1-390): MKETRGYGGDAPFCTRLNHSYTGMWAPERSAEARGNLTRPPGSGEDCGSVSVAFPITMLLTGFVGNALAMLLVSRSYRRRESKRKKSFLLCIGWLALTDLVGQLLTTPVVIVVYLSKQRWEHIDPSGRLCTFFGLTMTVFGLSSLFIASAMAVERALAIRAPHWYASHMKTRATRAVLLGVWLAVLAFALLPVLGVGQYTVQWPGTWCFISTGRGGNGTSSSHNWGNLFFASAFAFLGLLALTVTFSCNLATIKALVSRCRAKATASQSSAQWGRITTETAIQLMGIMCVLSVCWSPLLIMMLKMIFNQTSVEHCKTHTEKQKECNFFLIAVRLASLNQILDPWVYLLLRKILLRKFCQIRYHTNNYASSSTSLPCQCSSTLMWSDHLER
# Description: as §1, §2
# EP2 = target: T4, EP2 (Homo sapiens, UniProt P43116); test: agonist activity on human EP2 receptor (cAMP production, EP2-CHO cells); format: cell-based
# T4 construct: expressed in transfected cells; host or cells: CHO (EP2-CHO)
# Description: as §1, §3, §4
# EP4 = target: T5, EP4 (Homo sapiens, UniProt P35408); test: agonist activity on human EP4 receptor (cAMP production, EP4-CHO cells); format: cell-based
# T5 construct: expressed in transfected cells; host or cells: CHO (EP4-CHO)
# Description: as §1, §3, §4
# T4 sequence (P43116 whole entry): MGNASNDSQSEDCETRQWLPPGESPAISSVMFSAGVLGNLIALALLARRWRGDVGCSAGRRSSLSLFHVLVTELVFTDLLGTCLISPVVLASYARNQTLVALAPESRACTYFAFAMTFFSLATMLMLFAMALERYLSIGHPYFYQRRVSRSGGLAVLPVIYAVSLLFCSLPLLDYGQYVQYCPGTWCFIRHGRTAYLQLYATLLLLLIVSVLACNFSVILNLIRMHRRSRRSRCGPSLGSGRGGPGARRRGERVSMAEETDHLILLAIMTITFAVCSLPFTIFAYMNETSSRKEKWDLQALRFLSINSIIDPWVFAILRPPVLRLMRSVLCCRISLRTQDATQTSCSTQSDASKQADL
# T5 sequence (P35408 whole entry): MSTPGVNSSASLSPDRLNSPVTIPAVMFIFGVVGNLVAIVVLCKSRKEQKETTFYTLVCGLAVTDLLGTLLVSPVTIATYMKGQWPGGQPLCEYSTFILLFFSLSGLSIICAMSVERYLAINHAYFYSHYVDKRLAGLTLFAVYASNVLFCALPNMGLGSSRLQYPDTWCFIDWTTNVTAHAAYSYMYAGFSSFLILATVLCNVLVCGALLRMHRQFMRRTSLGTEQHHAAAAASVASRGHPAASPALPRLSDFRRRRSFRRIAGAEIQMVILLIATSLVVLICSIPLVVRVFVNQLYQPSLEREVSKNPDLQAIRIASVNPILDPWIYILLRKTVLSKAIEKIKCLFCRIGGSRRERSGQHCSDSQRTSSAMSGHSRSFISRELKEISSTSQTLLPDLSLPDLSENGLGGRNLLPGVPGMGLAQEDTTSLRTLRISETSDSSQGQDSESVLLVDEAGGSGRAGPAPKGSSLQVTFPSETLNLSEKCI
# T2 sequence (P43119 whole entry): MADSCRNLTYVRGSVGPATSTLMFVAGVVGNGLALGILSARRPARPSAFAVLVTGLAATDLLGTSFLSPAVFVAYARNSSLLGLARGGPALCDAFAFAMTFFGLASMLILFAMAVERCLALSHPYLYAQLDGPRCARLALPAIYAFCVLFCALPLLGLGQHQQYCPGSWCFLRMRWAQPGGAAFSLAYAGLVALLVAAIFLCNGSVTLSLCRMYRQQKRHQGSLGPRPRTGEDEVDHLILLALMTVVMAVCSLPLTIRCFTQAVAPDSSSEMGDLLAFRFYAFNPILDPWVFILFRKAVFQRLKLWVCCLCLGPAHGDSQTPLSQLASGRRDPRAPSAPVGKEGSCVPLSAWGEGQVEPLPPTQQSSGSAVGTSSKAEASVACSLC
Molecule,ACR mean (diabetes model rat; 0.01 mg/kg orally once),ACR mean (diabetes model rat; 0.1 mg/kg orally once),Amount of albumin excreted in urine mean ([1]; 0.1 mg/kg orally once a day for 8 weeks),Serum creatinine mean ([2]; 0.1 mg/kg orally once a day for 8 weeks in combination with losartan (30 mg/kg) and canagliflozin (10 mg/kg)),EC50 (EP1),ACR mean (diabetes model rat; 0.03 mg/kg orally once),Amount of albumin excreted in urine mean ([1]; 0.01 mg/kg orally once a day for 8 weeks),Amount of albumin excreted in urine mean ([1]; 0.03 mg/kg orally once a day for 8 weeks),Serum creatinine mean ([2]; 0.01 mg/kg orally once a day for 8 weeks in combination with losartan (30 mg/kg) and canagliflozin (10 mg/kg)),Serum creatinine mean ([2]; 0.03 mg/kg orally once a day for 8 weeks in combination with losartan (30 mg/kg) and canagliflozin (10 mg/kg)),EC50 (IP),EC50 (EP3 receptor),EC50 (EP2),EC50 (EP4)
"CCC(CCC(C)C)C(O)/C=C/[C@@H]1[C@H]2CCc3ccc(C(=O)O)c(C)c3O[C@H]2C[C@H]1O (stereo partly drawn) [Example 10, (1R,2R,3aS,10aR)-1-[(1E,3ξ,4ξ)-4-ethyl-3-hydroxy-7-methyl-1-octen-1-yl]-2-hydroxy-5-methyl-2,3,3a,9,10,10a-hexahydro-1H-benzo[b]cyclopenta[f]oxepine-6-carboxylic acid]",909.3 µg/mg,751.6 µg/mg,35.47 mg/24 h,0.50 mg/dL,> 10 µM,–,–,–,–,–,–,–,–,–
"Cc1c(C(=O)O)ccc2c1O[C@H]1C[C@@H](O)[C@H](/C=C/C[C@@](C)(O)CCC(F)=C(F)F)[C@H]1CC2 [Example 11, (1R,2R,3aS,10aR)-2-hydroxy-5-methyl-1-[(1E,45)-7,8,8-trifluoro-4-hydroxy-4-methyl-1,7-octadien-1-yl]-2,3,3a,9,10,10a-hexahydro-1H-benzo[b]cyclopenta[f]oxepine-6-carboxylic acid]",1010.5 µg/mg,–,–,–,> 10 µM,575.3 µg/mg,46.01 mg/24 h,37.94 mg/24 h,0.46 mg/dL,0.47 mg/dL,–,–,–,–
"(1R,2R,3aS,10aR)-2,5-difluoro-1-[(1E,3ξ)-3-hydroxy-4-methyl-4-phenyl-1-penten-yl]-2,3,3a,9,10,10a-hexahydro-1H-benzo[b]cyclopenta[f]oxepine-6-carboxylic acid [Example 28]",–,–,–,–,> 10 µM,–,–,–,–,–,> 10 µM,0.03 µM,> 10 µM,1.1 µM
